US20060079680A1, “Pyrazoloazepine compounds as pharmaceutical agents” (Eli Lilly and Company Patent Division, priority 2002, published 2006)

- melting point: 157 to 159 °C
SMILES: c1ccc(-c2nn3c(c2-c2ccnc4cc(OCCN5CCOCC5)ccc24)CCCCC3)nc1 [Example 4, 3-[7-(2-Morpholin-4-yl-ethoxy)-quinolin-4-yl]-2-pyridin-2-yl-5,6,7,8-tetrahydro-4H-pyrazolo[1,5-a]azepine]
